Laboratory results published in ChEMBL document CHEMBL1130186, “Potent alpha 4 beta 1 peptide antagonists as potential anti-inflammatory agents” (J Med Chem, 1997).
*1 amine or outer side, *2 acyl side, *3 side chain or, on linkers, in order; H or OH if unused. Where a SMILES comes first, the peptide text is derived from it. Bridges are numbered along the chain shown (N, C = ends). [ ]: non-standard residue; d: D form. The star is where a group is joined. ξ: configuration not given here. X5 = O=C([C@H](Cc1c(F)c(F)c(O)c(F)c1F)N[*:1])[*:2]; X7 = O=C([C@H]1[C@@H](c2ccc(O)cc2)CCN1[*:1])[*:2]; Tyr(3-Cl) = N[C@@H](Cc1ccc(O)c(Cl)c1)C(=O)O; Tyr(3-I) = N[C@@H](Cc1ccc(O)c(I)c1)C(=O)O; Oic(3aξ,7aξ) = O=C(O)[C@@H]1CC2CCCCC2N1; Fmoc = O=C(OCC1c2ccccc2-c2ccccc21)*; X1 = O=C(C(Cc1ccc(O)cc1)c1ccccc1)*; mTyr = N[C@@H](Cc1cccc(O)c1)C(=O)O; 1Naphthoyl = O=C(c1cccc2ccccc12)*; 2Naphthoyl = O=C(c1ccc2ccccc2c1)*; X4 = O=C(c1ccc(-c2ccc(O)cc2)cc1)*; Hyp = O=C(O)[C@@H]1C[C@@H](O)CN1; Cha = N[C@@H](CC1CCCCC1)C(=O)O; Aic = NC1(C(=O)O)Cc2ccccc2C1; Chg = N[C@H](C(=O)O)C1CCCCC1; Phg = N[C@H](C(=O)O)c1ccccc1; X2 = O=C(c1cccc2cc(O)ccc12)*; 3Amb = NCc1cccc(C(=O)O)c1; 4Amb = NCc1ccc(C(=O)O)cc1; 3Abz = Nc1cccc(C(=O)O)c1; 2Abz = Nc1ccccc1C(=O)O; Inp = O=C(O)C1CCNCC1; Bz = O=C(c1ccccc1)*; GABA = NCCCC(=O)O; Sar = CNCC(=O)O

Columns and labels:
Integrin alpha-4/beta-1 [1] = molecular target: T1, Integrin alpha-4/beta-1 (Homo sapiens, UniProt P05556+P13612); assay: Inhibition of fluorescently labeled alpha4-beta1 positive Ramos cells binding to immobilized VCAM-1.; assay type: cell-based
Integrin alpha-4/beta-1 [2] = molecular target: T1, Integrin alpha-4/beta-1; assay: Inhibition of purified alpha-4 beta-1 binding to VCAM-1 was determined in an ELISA assay.; assay type: protein-complex assay

T1 sequence (P05556 whole entry): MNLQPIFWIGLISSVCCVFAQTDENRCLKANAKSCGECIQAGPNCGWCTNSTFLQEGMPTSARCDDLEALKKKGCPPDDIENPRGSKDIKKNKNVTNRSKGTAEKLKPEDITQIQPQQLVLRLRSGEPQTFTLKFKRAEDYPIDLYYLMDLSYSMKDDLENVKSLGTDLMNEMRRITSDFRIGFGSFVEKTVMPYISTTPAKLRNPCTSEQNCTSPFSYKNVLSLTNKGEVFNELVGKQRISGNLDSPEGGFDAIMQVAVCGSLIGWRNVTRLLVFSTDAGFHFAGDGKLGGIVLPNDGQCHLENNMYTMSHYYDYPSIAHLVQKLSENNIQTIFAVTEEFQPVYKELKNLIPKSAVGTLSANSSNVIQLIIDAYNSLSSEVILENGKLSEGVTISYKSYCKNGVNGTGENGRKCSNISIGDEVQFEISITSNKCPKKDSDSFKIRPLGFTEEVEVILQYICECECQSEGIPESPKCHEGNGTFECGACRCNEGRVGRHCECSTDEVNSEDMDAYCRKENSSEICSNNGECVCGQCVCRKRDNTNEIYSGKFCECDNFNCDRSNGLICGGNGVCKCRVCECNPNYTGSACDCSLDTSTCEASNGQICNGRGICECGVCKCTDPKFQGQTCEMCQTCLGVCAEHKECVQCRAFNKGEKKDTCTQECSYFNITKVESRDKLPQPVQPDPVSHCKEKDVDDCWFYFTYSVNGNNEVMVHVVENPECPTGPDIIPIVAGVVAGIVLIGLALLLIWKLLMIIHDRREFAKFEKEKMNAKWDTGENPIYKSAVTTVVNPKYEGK
T1 sequence (P13612 whole entry): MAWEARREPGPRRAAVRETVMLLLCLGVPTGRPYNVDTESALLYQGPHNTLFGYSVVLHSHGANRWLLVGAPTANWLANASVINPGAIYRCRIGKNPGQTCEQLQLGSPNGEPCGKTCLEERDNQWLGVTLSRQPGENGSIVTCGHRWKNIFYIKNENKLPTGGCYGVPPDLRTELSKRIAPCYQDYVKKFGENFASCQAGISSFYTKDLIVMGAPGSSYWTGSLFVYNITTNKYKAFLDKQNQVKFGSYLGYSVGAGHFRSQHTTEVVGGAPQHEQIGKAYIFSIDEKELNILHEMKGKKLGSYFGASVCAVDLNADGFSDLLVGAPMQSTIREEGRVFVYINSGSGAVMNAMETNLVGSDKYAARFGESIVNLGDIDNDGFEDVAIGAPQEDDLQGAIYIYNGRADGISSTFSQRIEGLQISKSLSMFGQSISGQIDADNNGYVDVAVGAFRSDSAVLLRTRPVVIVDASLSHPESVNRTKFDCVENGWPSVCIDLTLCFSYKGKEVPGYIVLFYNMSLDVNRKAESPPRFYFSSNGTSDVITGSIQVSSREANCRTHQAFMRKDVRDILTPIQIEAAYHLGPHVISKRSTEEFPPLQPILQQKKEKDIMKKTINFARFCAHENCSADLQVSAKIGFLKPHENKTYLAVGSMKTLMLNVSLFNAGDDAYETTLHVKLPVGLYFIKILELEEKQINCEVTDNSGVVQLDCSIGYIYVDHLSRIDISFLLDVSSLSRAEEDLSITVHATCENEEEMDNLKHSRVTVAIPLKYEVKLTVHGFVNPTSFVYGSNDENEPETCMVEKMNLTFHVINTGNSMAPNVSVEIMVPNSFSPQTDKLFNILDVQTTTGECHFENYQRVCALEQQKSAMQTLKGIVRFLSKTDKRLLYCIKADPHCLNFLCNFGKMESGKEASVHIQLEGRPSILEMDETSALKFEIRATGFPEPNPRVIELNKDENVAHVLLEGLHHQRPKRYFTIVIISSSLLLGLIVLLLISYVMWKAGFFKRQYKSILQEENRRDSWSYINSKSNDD

Compound	IC50 (Integrin alpha-4/beta-1 [1]) [nM]	IC50 (Integrin alpha-4/beta-1 [2]) [nM]
C[C@@H]1NC(=O)[C@@H](NC(=O)[C@@H](N)Cc2ccc(O)cc2)CSSC[C@@H](C(=O)O)NC(=O)[C@@H]2CCCN2C1=O (H-YCAPC-OH; disulfide 2-5)	120	5
C[C@@H]1NC(=O)[C@@H](NC(=O)[C@@H](N)Cc2ccc(O)cc2)CSSC[C@@H](C(=O)O)NC(=O)[C@H](C2CCCCC2)NC1=O (H-YCA[Chg]C-OH; disulfide 2-5)		230
N=C(N)NCCC[C@H](NC(=O)OCC1c2ccccc2-c2ccccc21)C(=O)N[C@H]1CSSC[C@@H](C(=O)O)NC(=O)[C@@H]2CCCN2C(=O)[C@H](CC(=O)O)NC1=O (Fmoc-RCDPC-OH; disulfide 2-5)	15000	130
CC(=O)N[C@@H](Cc1ccc(O)cc1)C(=O)N[C@H]1CSSC[C@@H](C(N)=O)NC(=O)[C@@H]2CCCN2C(=O)[C@H](C)NC1=O (Ac-YCAPC-NH2; disulfide 2-5)		320
N[C@@H](Cc1ccc(O)cc1)C(=O)N[C@H]1CSSC[C@@H](C(=O)O)NC(=O)CNC1=O (H-YCGC-OH; disulfide 2-4)	250000	5800
O=C(N[C@H]1CSSC[C@@H](C(=O)O)NC(=O)[C@@H]2CCCN2C(=O)[C@H](CO)NC1=O)c1cccc2ccccc12 (1Naphthoyl-CSPC-OH; disulfide 1-4)	6300	97
O=C(N[C@H]1CSSC[C@@H](C(=O)O)NC(=O)[C@@H]2CCCN2C(=O)[C@H](CO)NC1=O)c1cccc2cc(O)ccc12 (X2-CSPC-OH; disulfide 1-4)	40000	1100
O=C(N[C@H]1CSSC[C@@H](C(=O)O)NC(=O)[C@@H]2CCCN2C(=O)[C@H](CO)NC1=O)c1ccccc1 (Bz-CSPC-OH; disulfide 1-4)	1900	134
N[C@H](Cc1ccc(O)cc1)C(=O)N[C@H]1CSSC[C@@H](C(=O)O)NC(=O)[C@@H]2CCCN2C(=O)[C@H](CO)NC1=O	126000	890
NC(N)=NCCC[C@H](NC(=O)[C@@H](N)Cc1ccccc1)C(=O)N[C@H]1CSSC[C@@H](C(=O)O)NC(=O)[C@@H]2CCCN2C(=O)[C@H](CC(=O)O)NC1=O (H-FRCDPC-OH; disulfide 3-6)	100000	2100
O=C(N[C@H]1CSSC[C@@H](C(=O)O)NC(=O)[C@@H]2CCCN2C(=O)[C@H](CO)NC1=O)c1ccc(-c2ccc(O)cc2)cc1 (X4-CSPC-OH; disulfide 1-4)	120000	1650
NCCCC[C@H](NC(=O)[C@@H](N)Cc1ccc(O)cc1)C(=O)N[C@H]1CSSC[C@@H](C(=O)O)NC(=O)[C@@H]2CCCN2C(=O)[C@H](CC(=O)O)NC1=O (H-YKCDPC-OH; disulfide 3-6)	5000	150
N[C@@H](Cc1c(F)c(F)c(O)c(F)c1F)C(=O)N[C@H]1CSSC[C@@H](C(=O)O)NC(=O)[C@@H]2CCCN2C(=O)[C@H](CO)NC1=O (H-[X5]CSPC-OH; disulfide 2-5)	60000	530
C[C@@H]1NC(=O)[C@@H](NC(=O)[C@@H](N)Cc2ccc(O)cc2)CSSC[C@@H](C(=O)O)NC(=O)[C@@H]2C[C@@H](O)CN2C1=O (H-YCA[Hyp]C-OH; disulfide 2-5)		5
C[C@H](NC(=O)[C@@H](N)Cc1ccc(O)cc1)C(=O)N[C@H]1CSSC[C@@H](C(=O)O)NC(=O)[C@@H]2CCCN2C(=O)[C@H](CC(=O)O)NC1=O (H-YACDPC-OH; disulfide 3-6)	5000	210
CC(=O)N[C@@H](Cc1ccc(O)cc1)C(=O)N[C@H]1CSSC[C@@H](C(=O)O)NC(=O)[C@H](c2ccccc2)NC(=O)[C@H](C)NC1=O (Ac-YCA[Phg]C-OH; disulfide 2-5)	33000	76
CC(=O)N1CC[C@H](c2ccc(O)cc2)[C@@H]1C(=O)N[C@H]1CSSC[C@@H](C(=O)O)NC(=O)[C@@H]2CCCN2C(=O)[C@H](CO)NC1=O (Ac-[X7]CSPC-OH; disulfide 2-5)		4
CC(=O)N[C@@H](CCCN=C(N)N)C(=O)N[C@H]1CSSC[C@@H](C(=O)O)NC(=O)[C@@H]2CCCN2C(=O)[C@H](CC(=O)O)NC1=O (Ac-RCDPC-OH; disulfide 2-5)	40000	1300
NC(=O)[C@@H]1CSSC[C@H](NC(=O)[C@@H](N)Cc2ccc(O)cc2)C(=O)Nc2cccc(c2)C(=O)N1 (H-YC[3Abz]C-NH2; disulfide 2-4)		12000
N[C@@H](Cc1ccc(O)cc1)C(=O)N[C@H]1CSSC[C@@H](C(=O)O)NC(=O)c2ccccc2NC1=O (H-YC[2Abz]C-OH; disulfide 2-4)	80000	1300
C[C@@H]1NC(=O)[C@@H](NC(=O)[C@@H](N)Cc2ccc(O)cc2)CSSC[C@@H](C(=O)O)NC(=O)[C@@H]2CC3CCCCC3N2C1=O (some centres undefined) (H-YCA[Oic(3aξ,7aξ)]C-OH; disulfide 2-5)	4700	20
N[C@@H](Cc1ccc(O)c(Cl)c1)C(=O)N[C@H]1CSSC[C@@H](C(=O)O)NC(=O)[C@@H]2CCCN2C(=O)[C@H](CO)NC1=O (H-[Tyr(3-Cl)]CSPC-OH; disulfide 2-5)	600	7
N[C@@H](Cc1ccc(O)cc1)C(=O)N[C@H]1CSSC[C@@H](C(=O)O)NC(=O)c2ccc(cc2)CNC1=O (H-YC[4Amb]C-OH; disulfide 2-4)	15000	420

Compound	IC50 (Integrin alpha-4/beta-1 [1]) [nM]	IC50 (Integrin alpha-4/beta-1 [2]) [nM]
CC(C)C[C@H](N)C(=O)N[C@@H](CCCNC(=N)N)C(=O)N[C@H]1CSSC[C@@H](C(=O)O)NC(=O)[C@@H]2CCCN2C(=O)[C@H](CC(=O)O)NC1=O (H-LRCDPC-OH; disulfide 3-6)	250000	21000
C[C@@H]1NC(=O)[C@@H](NC(=O)[C@@H](N)Cc2ccc(O)cc2)CSSC[C@@H](C(=O)O)NC1=O (H-YCAC-OH; disulfide 2-4)	350000	9400
O=C(N[C@H]1CSSC[C@@H](C(=O)O)NC(=O)[C@@H]2CCCN2C(=O)[C@H](CO)NC1=O)C1CCNCC1 (H-[Inp]CSPC-OH; disulfide 2-5)	50000	4600
N=C(N)NCCC[C@H](NC(=O)[C@@H](N)Cc1c[nH]c2ccccc12)C(=O)N[C@H]1CSSC[C@@H](C(=O)O)NC(=O)[C@@H]2CCCN2C(=O)[C@H](CC(=O)O)NC1=O (H-WRCDPC-OH; disulfide 3-6)	100000	1200
NC(=O)[C@@H]1CSSC[C@H](NC(=O)[C@@H](N)CCCN=C(N)N)C(=O)N[C@@H](CC(=O)O)C(=O)N2CCC[C@H]2C(=O)N1 (H-RCDPC-NH2; disulfide 2-5)		50000
CC1CNC(=O)[C@@H](NC(=O)[C@@H](N)Cc2ccc(O)cc2)CSSC[C@@H](C(=O)O)NC1=O (some centres undefined)	2700	47
N[C@@H](Cc1ccc(O)c(I)c1)C(=O)N[C@H]1CSSC[C@@H](C(=O)O)NC(=O)[C@@H]2CCCN2C(=O)[C@H](CO)NC1=O (H-[Tyr(3-I)]CSPC-OH; disulfide 2-5)	200	4
C[C@@H]1NC(=O)[C@@H](NC(=O)[C@@H](N)Cc2ccc(O)cc2)CSSC[C@@H](C(=O)O)NC(=O)[C@H](CC2CCCCC2)NC1=O (H-YCA[Cha]C-OH; disulfide 2-5)	25000	140
N[C@@H](Cc1cccc(O)c1)C(=O)N[C@H]1CSSC[C@@H](C(=O)O)NC(=O)[C@@H]2CCCN2C(=O)[C@H](CO)NC1=O (H-[mTyr]CSPC-OH; disulfide 2-5)	25000	250
N[C@@H](Cc1ccc(O)cc1)C(=O)N[C@H]1CSSC[C@@H](C(=O)O)NC(=O)CCCNC1=O (H-YC[GABA]C-OH; disulfide 2-4)	1000	38
N[C@@H](Cc1ccc(O)cc1)C(=O)N[C@H]1CSSC[C@@H](C(=O)O)NC(=O)c2cccc(c2)CNC1=O (H-YC[3Amb]C-OH; disulfide 2-4)	210000	6000
CC(=O)N[C@@H](Cc1ccc(O)cc1)C(=O)N[C@H]1CSSC[C@@H](C(=O)O)NC(=O)[C@@H]2CCCN2C(=O)[C@H](Cc2ccc(O)cc2)NC1=O (Ac-YCYPC-OH; disulfide 2-5)	230	3
O=C(N[C@H]1CSSC[C@@H](C(=O)O)NC(=O)[C@@H]2CCCN2C(=O)[C@H](CO)NC1=O)C(Cc1ccc(O)cc1)c1ccccc1 (some centres undefined) (X1-CSPC-OH; disulfide 1-4)	2000	13
N=C(N)NCCC[C@H](NC(=O)[C@@H](N)Cc1ccc(O)cc1)C(=O)N[C@H]1CSSC[C@@H](C(=O)O)NC(=O)[C@@H]2CCCN2C(=O)[C@H](CC(N)=O)NC1=O (H-YRCNPC-OH; disulfide 3-6)	7000	40
N[C@@H](Cc1ccc(O)cc1)C(=O)N[C@H]1CSSC[C@@H](C(=O)O)NC(=O)[C@H](C2CCCCC2)NC1=O (H-YC[Chg]C-OH; disulfide 2-4)		115000
CC(=O)N[C@@H](Cc1ccc(O)cc1)C(=O)N[C@H]1CSSC[C@@H](C(=O)O)NC(=O)CNC(=O)[C@H](C)NC1=O (Ac-YCAGC-OH; disulfide 2-5)		22000
C[C@@H]1NC(=O)[C@@H](NC(=O)[C@@H](N)Cc2ccc(O)cc2)CSSC[C@@H](C(=O)O)NC(=O)C2(Cc3ccccc3C2)NC1=O (H-YCA[Aic]C-OH; disulfide 2-5)		36000
C[C@@H]1NC(=O)[C@@H]2CCCN2C(=O)[C@@H](NC(=O)[C@@H](N)Cc2ccc(O)cc2)CSSC[C@@H](C(=O)O)NC1=O (H-YCPAC-OH; disulfide 2-5)	14000	230
CC(C)C[C@@H]1NC(=O)[C@H](C)NC(=O)[C@@H](NC(=O)[C@@H](N)Cc2ccc(O)cc2)CSSC[C@@H](C(=O)O)NC1=O (H-YCALC-OH; disulfide 2-5)	10500	34
O=C(N[C@H]1CSSC[C@@H](C(=O)O)NC(=O)[C@@H]2CCCN2C(=O)[C@H](CO)NC1=O)c1ccc2ccccc2c1 (2Naphthoyl-CSPC-OH; disulfide 1-4)	3600	54
N[C@@H](Cc1ccc(O)cc1)C(=O)N[C@H]1CSSC[C@@H](C(=O)O)NC(=O)[C@H](CC2CCCCC2)NC1=O (H-YC[Cha]C-OH; disulfide 2-4)		18000
CC(=O)N[C@@H](Cc1ccc(O)cc1)C(=O)N[C@H]1CSSC[C@@H](C(=O)O)NC(=O)CN(C)C(=O)[C@H](C)NC1=O (Ac-YCA[Sar]C-OH; disulfide 2-5)		710
